Measured values published in the NIST ThermoML archive (doi:10.1021/je3013638).

Conditions: Liquid, Closed cell (Static) method

Nc1cc(Cl)cc(Cl)c1 [3,5-dichloroaniline]
Conditions	vapor or sublimation pressure [kPa]
446.6 K	10.25
453.88 K	12.95
457.69 K	14.44
463.14 K	16.64
464.4 K	17.2
466.41 K	18.21
468.53 K	19.57
469.09 K	19.87
470.18 K	20.2
473.66 K	22.16
474.48 K	23.01
475.29 K	23.48
477.65 K	24.67
481.31 K	27.19
484.05 K	29.6
487.88 K	32.05
490.85 K	35.09
492.54 K	36.63
495.3 K	38.71
497.31 K	41.11
500.72 K	44.06
503.96 K	47.64
507.34 K	51.52
509.76 K	55.17
512.08 K	58.05
513.94 K	60.01
516.09 K	63.13
518.15 K	66.66
519.82 K	68.55
521.75 K	71.6
523.61 K	75.31
525.72 K	78.65
528.31 K	82.54
530.51 K	87.17
532.9 K	91.08
534.94 K	95.84
